As usually defined, the IC50 is the concentration that inhibits the measured activity by half.

The experiment addresses T1, DNA damage-binding protein 1 (DDB1) (Homo sapiens, UniProt Q16531).
T1 construct: with CUL4A
In words: AlphaScreen disruption of purified His-DDB1/GST-CUL4A interaction; in vitro Ni-NTA pulldown with recombinant proteins. In general terms: Bead proximity is the source of the signal in Alpha formats.

T1 sequence (Q16531 whole entry): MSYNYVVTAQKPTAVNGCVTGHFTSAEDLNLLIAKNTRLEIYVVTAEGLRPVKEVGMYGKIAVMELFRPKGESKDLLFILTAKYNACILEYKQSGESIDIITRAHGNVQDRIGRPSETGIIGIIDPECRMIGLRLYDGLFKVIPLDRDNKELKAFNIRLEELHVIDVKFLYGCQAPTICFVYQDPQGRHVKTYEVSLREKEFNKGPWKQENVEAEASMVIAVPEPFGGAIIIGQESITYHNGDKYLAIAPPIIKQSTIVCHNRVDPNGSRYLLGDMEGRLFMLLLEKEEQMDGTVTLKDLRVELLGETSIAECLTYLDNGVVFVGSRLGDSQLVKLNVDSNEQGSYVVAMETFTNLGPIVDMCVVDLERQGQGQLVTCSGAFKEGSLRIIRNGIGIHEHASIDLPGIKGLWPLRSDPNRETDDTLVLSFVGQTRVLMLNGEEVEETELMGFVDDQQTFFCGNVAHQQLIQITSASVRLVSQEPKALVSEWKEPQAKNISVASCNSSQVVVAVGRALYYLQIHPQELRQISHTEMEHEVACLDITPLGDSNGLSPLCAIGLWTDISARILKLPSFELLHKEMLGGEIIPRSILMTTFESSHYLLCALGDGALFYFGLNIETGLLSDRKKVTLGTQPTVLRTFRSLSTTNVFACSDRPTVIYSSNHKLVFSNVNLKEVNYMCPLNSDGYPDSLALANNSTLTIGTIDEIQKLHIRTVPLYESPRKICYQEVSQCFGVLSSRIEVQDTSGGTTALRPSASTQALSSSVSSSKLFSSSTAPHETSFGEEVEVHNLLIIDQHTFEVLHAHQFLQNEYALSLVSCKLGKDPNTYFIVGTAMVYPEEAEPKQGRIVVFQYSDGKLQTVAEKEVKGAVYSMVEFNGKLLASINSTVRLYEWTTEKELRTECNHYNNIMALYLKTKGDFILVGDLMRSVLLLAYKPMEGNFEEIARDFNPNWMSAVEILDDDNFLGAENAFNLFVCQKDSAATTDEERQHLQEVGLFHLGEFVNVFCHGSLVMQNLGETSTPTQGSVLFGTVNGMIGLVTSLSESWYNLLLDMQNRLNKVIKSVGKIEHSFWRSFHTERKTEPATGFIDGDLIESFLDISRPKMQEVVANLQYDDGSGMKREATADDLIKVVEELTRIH
T1 sequence (Q13619 whole entry partner): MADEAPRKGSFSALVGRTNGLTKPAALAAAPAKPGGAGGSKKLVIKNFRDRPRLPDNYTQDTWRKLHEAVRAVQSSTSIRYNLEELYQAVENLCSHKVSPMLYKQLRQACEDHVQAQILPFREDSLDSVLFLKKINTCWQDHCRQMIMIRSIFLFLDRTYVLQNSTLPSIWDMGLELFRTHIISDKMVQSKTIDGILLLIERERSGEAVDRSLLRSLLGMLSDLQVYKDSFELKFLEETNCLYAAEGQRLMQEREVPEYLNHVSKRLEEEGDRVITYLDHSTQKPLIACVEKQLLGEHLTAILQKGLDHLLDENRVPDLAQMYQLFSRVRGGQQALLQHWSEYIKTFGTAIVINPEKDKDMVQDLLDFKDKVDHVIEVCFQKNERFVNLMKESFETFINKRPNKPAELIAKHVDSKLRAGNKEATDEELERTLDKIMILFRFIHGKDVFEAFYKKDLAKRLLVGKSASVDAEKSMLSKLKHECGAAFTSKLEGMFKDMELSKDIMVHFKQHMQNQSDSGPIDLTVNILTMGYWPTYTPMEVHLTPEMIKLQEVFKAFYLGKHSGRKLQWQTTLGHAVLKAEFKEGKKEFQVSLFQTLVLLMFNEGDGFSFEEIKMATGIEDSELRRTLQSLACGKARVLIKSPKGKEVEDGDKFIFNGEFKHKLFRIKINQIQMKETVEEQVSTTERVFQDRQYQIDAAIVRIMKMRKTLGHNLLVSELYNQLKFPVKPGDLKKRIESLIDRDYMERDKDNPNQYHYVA

As for `CC(=O)O[C@@H]1c2occc2[C@@H](O)C[C@H]2[C@]3(C)CC[C@H]4C(C)(C)CCC[C@]4(C)[C@H]3C[C@@]21C` [NSC1892], the half-inhibitory concentration (IC50) is 1800 nM.

The values are drawn from paper PMC7053343, “Small molecule NSC1892 targets the CUL4A/4B-DDB1 interactions and causes impairment of CRL4^DCAF4 E3 ligases to inhibit colorectal cancer cell growth” (International Journal of Biological Sciences, 2020).
